How the values were obtained:
[1] = test system: primary human T-cells; assay: T-cell proliferation assay (CellTiter-Glo); format: cell-based; conditions: Homo sapiens, T-cell, 120 h, CD3 condition; for Emax: 5 days, 20 μM reference compound A1 = 100%, read-out: Emax proliferation (% activation); for EC50: proliferation after 5 days, CellTiter-Glo, read-out: Tcell Proliferation CD3 EC50
Experimental: Expanded primary human T-cells are thawed and cultured in RPMI 1640 (Gibco, #61870-010)+5% human serum (HS, Sigma, #H3667)+1 mM Sodium Pyruvate (Gibco, #11360-039)+50 μM 2-mercaptoethanol (Gibco, #31350-010) and 1× Pen-Strep (Life Technologies, #15140122) medium at density of 2 Mio/ml for 3 hours in 5% CO2, 37° C. and 95% humidity. For coating of plates, PBS++ only or PBS++ with CD3 antibody (concentration depending on donor and determined by CD3 titrations) is added 100 μl/well to Poly-D Lysine coated 96-well plates. Plates are sealed and incubated at room temperature for 3 hours on a table-top rocking platform. After incubation, plates are washed once with PBS−− and filled with 40 μl/well culture medium only. Compounds are then added (see next section) to medium only plates. After 3 hours of culturing the T-cells, cells are filtered through a cell strainer (Miltenyi Biotech, #130-041-407), counted again and concentration is adjusted to 1.25 Mio/ml.
Cells are then seeded 80 μl/well to the 40 µl/well including dispensed compounds according to plate layout. By adding cells, compounds are further diluted 1:3, and resulting in 100k cells/120 µl/well. After 48 hours 40 μl of supernatant is collected carefully from the top while not disturbing the cells. Cells are assessed for proliferation 5 days later by measuring […] using CellTiterGlo (Promega).
(§1) Compounds were added in a 5 or 6 pt dose response with the Tecan D300e Digital Dispenser, all conditions 3 times more concentrated than the end-concentration, since cells are added afterwards (80p1 cells to 40p1 prepared medium with treatment). The DR was starting at 20 μM or 10 μM final top concentration and a dilution factor of 3.333. The positive control was the reference compound A1 that was added in a dose response as well, additionally to 3 wells of only 20 μM representing the positive stimulator control. All wells were normalized with DMSO to a final concentration of 0.6% (0.2% end-concentration).
After 5 days, for detection of ATP which is directly proportional to the number of cells present per well, the CellTiter-Glo® 2.0 Reagent is used. After visual control for toxicity or precipitations of the tested compounds, the plates are equilibrated to room temperature for 45 minutes. CellTiter-Glo® 2.0 Reagent is equilibrated to room temperature as well. After equilibration, an equal amount of CellTiter-Glo reagent is added to the cells (80 µl/well) with an electronic multichannel pipette. Plates are placed on a rocking platform for 15 minutes at room temperature. After incubation, the bottom of the plates is sealed with backing tape. Luminescence is measured with PHERAstar FSX (interval time 0.5 sec, gain 3000, focal height 15 mm) and exported as CSV file for analysis in Genedata screener.
Calculations and Data Reporting CD3 and PBS plates were analysed separately in Genedata Screener using Roche Normalization PCT_POS_CTRL with DMSO set as Neutral Control and 20 μM of the reference compound A1 set as Stimulator Control/100%.
For CD3 conditions EC50 and Emax of the fitted sigmoidal curve were reported. If no curve could be fitted, the EC50 was reported as blank field and the Emax was based on individual data points. […] Compounds which activate unstimulated cells (see IL2 measurements) or compounds which negatively affected viability were flagged.

[2] = test system: primary human T-cells; assay: IL2 secretion measurements in CD3-stimulated T-cells; format: cell-based; conditions: Homo sapiens, T-cell, 24 h, CD3 condition; for Emax: IL2 after 24 hours, 20 μM reference compound A1 = 100%, read-out: Emax IL2 (% activation); for EC50: IL2 secretion after 24 hours, read-out: Tcell IL2 CD3 EC50
Experimental: As readouts for T-cell activation, IL2 secretion after 24 hours and proliferation after 5 days was measured. Increases in IL2 secretion and proliferation upon compound treatment were assessed as the % of the maximum of reference compound A1. WO 2016/139181 discloses reference compound A1 as example 70. As a counter screen and to make sure that no unwanted TCR-independent activation was triggered, PBS conditions were run for all compounds.
Expanded primary human T-cells were thawed and cultured in RPMI 1640 (Gibco, #61870-010)+5% human serum (HS, Sigma, #H3667)+1 mM Sodium Pyruvate (Gibco, #11360-039)+50 μM 2-mercaptoethanol (Gibco, #31350-010) and 1× Pen-Strep (Life Technologies, #15140122) medium at density of 2 Mio/ml for 3 hours in 5% CO2, 37° C. and 95% humidity. For coating of plates, […] or PBS++ with CD3 antibody (concentration depending on donor and determined by CD3 titrations) was added 100 μl/well to Poly-D Lysine coated 96-well plates. Plates were sealed and incubated at room temperature for 3 hours on a table-top rocking platform. After incubation, plates were washed once with PBS−− and filled with 40 μl/well culture medium only. Compounds were then added (see next section) to medium only plates. After 3 hours of culturing the T-cells, cells were filtered through a cell strainer (Miltenyi Biotech, #130-041-407), counted again and concentration was adjusted to 1.25 Mio/ml.
Cells were then seeded 80 μl/well to the 40 μl/well including dispensed compounds according to plate layout. By adding cells, compounds were further diluted 1:3, and resulting in 100k cells/120 µl/well. After 24 hours 40 μl of supernatant was collected carefully from the top while not disturbing the cells and transferred into a round bottom 96 well plate. Collected and frozen supernatant was used for detection of IL2 using the IL-2 Human ProQuantum Immunoassay Kit (Invitrogen) or using the Human IL-2 ELISA Kit (Thermo Fisher).
as §1, with “Compound Treatment Compounds” for “Compounds”
The immunoassay is done following the manufacturer's manual (Invitrogen, #A35603).
Additional information: For the immunoassay, MicroAmp™ EnduraPlate™ Optical 384-Well plates are used. Frozen supernatant is thawed and centrifuged for 5 minutes at 1000×g, both steps at 4° C. After centrifugation, required sample amount is taken from the top, and in a separate LightCycler V-bottom plate (working plate) diluted with assay dilution buffer, dilution factor depending on the PBS or CD3 condition but at least 1:3. IL-2 standard and blanks are prepared in the same V-bottom plate, standard with a range of 0.0128-5000 pg/ml (extended version). After preparation, 5 μl of sample dilutions or standard/blanks are transferred to the optical 384-well plate (assay plate) and the 10 μl reaction protocol is being followed. For measurement, the QuantStudio 12K Flex system is used. Raw data is extracted and IL-2 concentrations are calculated with the Thermo Fisher online app (apps.thermofisher.com/apps/proquantum).
ELISA is done following the manufacturer's manual (Thermo Fisher Scientific, #88-7025-88). Additional information: For the ELISA Nunc MaxiSorp 96 well plates are used. Frozen supernatant is thawed and centrifuged for 5 minutes at 1000×g, both steps at 4° C. […]

[3] = target: DGKalpha (Homo sapiens, UniProt P23743); assay: In vitro DGK inhibition assay (ADP-Glo, liposomes), DGKalpha; format: biochemical; design: hDGKalpha(1-735)-N-His; His (N); made in house; host or cells: Sf21 insect cells (baculovirus); conditions: 4 nM DGK α, 25 μM ATP, 125 uM DLG in liposomes, 1 hour reaction
DGKalpha, sequence (P23743 whole entry): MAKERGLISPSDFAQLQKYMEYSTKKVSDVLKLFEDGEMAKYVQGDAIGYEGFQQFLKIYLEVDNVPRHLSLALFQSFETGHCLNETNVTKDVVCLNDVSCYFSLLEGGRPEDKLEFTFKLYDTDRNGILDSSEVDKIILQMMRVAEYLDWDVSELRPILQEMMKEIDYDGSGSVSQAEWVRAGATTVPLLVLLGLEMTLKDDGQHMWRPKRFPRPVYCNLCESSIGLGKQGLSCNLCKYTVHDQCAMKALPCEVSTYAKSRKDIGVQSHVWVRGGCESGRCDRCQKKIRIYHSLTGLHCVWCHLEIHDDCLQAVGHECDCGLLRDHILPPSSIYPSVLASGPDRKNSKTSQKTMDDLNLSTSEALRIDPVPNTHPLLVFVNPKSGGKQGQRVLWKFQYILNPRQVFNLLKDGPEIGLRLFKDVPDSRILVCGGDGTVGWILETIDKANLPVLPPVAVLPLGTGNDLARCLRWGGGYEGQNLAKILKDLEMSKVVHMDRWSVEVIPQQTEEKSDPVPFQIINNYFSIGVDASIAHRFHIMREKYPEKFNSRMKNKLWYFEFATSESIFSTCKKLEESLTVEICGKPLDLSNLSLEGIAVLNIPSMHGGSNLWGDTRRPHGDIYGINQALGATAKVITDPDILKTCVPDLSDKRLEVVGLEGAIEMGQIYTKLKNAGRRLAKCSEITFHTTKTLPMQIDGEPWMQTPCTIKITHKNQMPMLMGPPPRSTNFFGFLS
Experimental: (§2) DGK α and ζ kinases use ATP to phosphorylate the substrate 1,2-dilauroyl-sn-glycerol (DLG, incorporated in the liposomes). ATP is converted to ADP as a result of this enzymatic reaction. After the kinase reaction, an ATP-depletion reagent is added to terminate the kinase reaction and deplete any remaining ATP, leaving only ADP. Second, a detection reagent is added to simultaneously convert ADP to ATP and allow the newly synthesized ATP to be converted to light using a coupled luciferase/luciferin reaction.
Full length DGKA and Z were expressed in Sf21 insect cells by infecting the cells with the baculovirus stock at MOI of 2. Purification of both enzymes was performed as previously described by Takahashi et al., PeerJ, 2018 (Takahashi, D.; Sakane, F. Expression and purification of human diacylglycerol kinase alpha from baculovirus-infected insect cells for structural studies. PeerJ 2018, 6, No. e5449).
(§3) A concentrated liposome solution was prepared in assay buffer without DTT and BSA: 2 mM of DLG in 21 mM of total liposome (2 mM DLG/8 mM PS/11 mM PC). The reaction mixtures contain the assay buffer with a final DLG concentration of 125 uM ATP concentrations of 25 μM (for DGKA assay) or 50 μM (for DGKZ assay). The reactions were started by addition of DGK a and (kinases at 4 nM and 2 nM final concentrations, respectively. After 1 hour reaction, the amount of ADP formed was detected with the ADP-Glo kinase assay (Promega) according to the manufacturer instructions. Compounds were added in 11-points dose response, starting at […], 1:3 dilutions, with a final DMSO concentration of 2%. The multidrop combi was used as a liquid handler and luminescence was read with 0.5 s by the envision reader (PE).

[4] = target: DGKzeta (Homo sapiens, UniProt Q13574); assay: In vitro DGK inhibition assay (ADP-Glo, liposomes), DGKzeta; format: biochemical; design: hDGKzeta(1-928)-N-His; His (N); made in house; host or cells: Sf21 insect cells (baculovirus); conditions: 2 nM DGK ζ, 50 μM ATP, 125 uM DLG in liposomes, 1 hour reaction
DGKzeta, sequence (Q13574 whole entry): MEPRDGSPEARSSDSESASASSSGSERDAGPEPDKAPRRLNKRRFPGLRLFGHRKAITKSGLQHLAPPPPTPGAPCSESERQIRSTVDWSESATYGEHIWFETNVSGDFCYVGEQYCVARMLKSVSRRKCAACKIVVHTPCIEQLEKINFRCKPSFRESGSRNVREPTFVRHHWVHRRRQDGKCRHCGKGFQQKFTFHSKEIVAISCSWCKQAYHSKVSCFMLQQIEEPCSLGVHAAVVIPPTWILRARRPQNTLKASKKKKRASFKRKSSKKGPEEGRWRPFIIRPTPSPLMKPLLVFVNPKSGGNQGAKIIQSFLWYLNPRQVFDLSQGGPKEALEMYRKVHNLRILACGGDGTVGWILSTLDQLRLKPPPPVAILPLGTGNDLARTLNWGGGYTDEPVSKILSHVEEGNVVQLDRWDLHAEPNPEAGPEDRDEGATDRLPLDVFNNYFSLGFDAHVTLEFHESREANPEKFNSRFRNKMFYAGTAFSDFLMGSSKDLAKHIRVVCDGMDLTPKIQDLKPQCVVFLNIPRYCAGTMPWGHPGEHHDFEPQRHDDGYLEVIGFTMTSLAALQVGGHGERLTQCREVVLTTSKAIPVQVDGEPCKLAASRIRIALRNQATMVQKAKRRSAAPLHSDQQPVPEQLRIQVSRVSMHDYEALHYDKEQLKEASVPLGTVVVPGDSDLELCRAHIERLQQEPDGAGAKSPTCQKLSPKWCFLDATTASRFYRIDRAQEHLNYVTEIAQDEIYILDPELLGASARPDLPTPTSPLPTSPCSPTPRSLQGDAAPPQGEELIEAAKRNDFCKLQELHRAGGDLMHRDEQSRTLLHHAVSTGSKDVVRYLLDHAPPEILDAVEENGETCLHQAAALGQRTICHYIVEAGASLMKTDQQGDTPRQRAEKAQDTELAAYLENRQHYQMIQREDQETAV
Experimental: as §2
Purification of both enzymes was performed as previously described by Takahashi et al., PeerJ, 2018 (Takahashi, D.; Sakane, F. Expression and purification of human diacylglycerol kinase alpha from baculovirus-infected insect cells for structural studies. PeerJ 2018, 6, No. e5449).
as §3

Row | Compound | EC50 [2] | IC50 [3] | IC50 [4] | Emax [1] | EC50 [1] | Emax [2]
1 | CC(C)N(C)c1ccc(CN2C(=O)[C@@H](N)CS(=O)(=O)c3ccc(-c4nnc(C(C)(C)S(C)(=O)=O)o4)cc32)cc1 [Example 18, (3R)-3-amino-5-[[4-[isopropyl(methyl)amino]phenyl]methyl]-7-[5-(1-methyl-1-methylsulfonyl-ethyl)-1,3,4-oxadiazol-2-yl]-1,1-dioxo-2,3-dihydro-126,5-benzothiazepin-4-one] | > 10000 nM | – | – | 63% | 6350 nM | 46%
2 | CC(C)(c1nnc(-c2ccc3c(c2)N(Cc2ccc(OCc4cccc(F)c4)cc2)C(=O)[C@@H](N)CS3(=O)=O)o1)S(C)(=O)=O [Example 13, (3R)-3-amino-5-[[4-[(3-fluorophenyl)methoxy]phenyl]methyl]-7-[5-(1-methyl-1-methylsulfonyl-ethyl)-1,3,4-oxadiazol-2-yl]-1,1-dioxo-2,3-dihydro-1λ6,5-benzothiazepin-4-one] | 1300 nM | – | – | 92% | 1140 nM | 181%
3 | CC(C)(c1nnc(-c2ccc3c(c2)N(Cc2ccc(COc4ccccc4)cc2)C(=O)[C@@H](N)CS3(=O)=O)o1)S(C)(=O)=O [Example 8, (3R)-3-amino-7-[5-(1-methyl-1-methylsulfonyl-ethyl)-1,3,4-oxadiazol-2-yl]-1,1-dioxo-5-[[4-(phenoxymethyl)phenyl]methyl]-2,3-dihydro-1λ6,5-benzothiazepin-4-one] | – | – | – | 174% | – | 177%

The remaining compounds from weak to strong by EC50 [2], led by results:

Row | EC50 [2] | IC50 [3] | IC50 [4] | Compound | Emax [1] | EC50 [1] | Emax [2]
4 | 566 nM | – | – | CC(C)(c1nnc(-c2cc3c(cc2F)S(=O)(=O)C[C@H](N)C(=O)N3Cc2ccc(-c3ccc(C(F)(F)F)cn3)cc2)o1)S(C)(=O)=O [Example 25, (3R)-3-amino-8-fluoro-7-[5-(1-methyl-1-methylsulfonyl-ethyl)-1,3,4-oxadiazol-2-yl]-1,1-dioxo-5-[[4-[5-(trifluoromethyl)-2-pyridyl]phenyl]methyl]-2,3-dihydro-1λ6,5-benzothiazepin-4-one] | – | – | 244%
5 | 185 nM | 1160 nM | 573 nM | CC(C)(c1nnc(-c2cc3c(cc2F)S(=O)(=O)C[C@H](N)C(=O)N3Cc2ccc(-c3noc(C(F)(F)F)n3)cc2)o1)S(C)(=O)=O [Example 28, (3R)-3-amino-8-fluoro-7-[5-(1-methyl-1-methylsulfonyl-ethyl)-1,3,4-oxadiazol-2-yl]-1,1-dioxo-5-[[4-[5-(trifluoromethyl)-1,2,4-oxadiazol-3-yl]phenyl]methyl]-2,3-dihydro-1λ6,5-benzothiazepin-4-one] | – | – | 307%

Reference: patent US20260035364A1, “BICYCLIC TETRAHYDROTHIAZEPINE DERIVATIVES” (Hoffmann-La Roche Inc., priority 2022, published 2026)
